Results from ChEMBL document CHEMBL5058564, “EUbOPEN Chemogenomics Library 2 (Incucyte)” (2022).

Assays:
Type in all cases: toxicity, cell-based
[1] = test system: HEK-293T; experiment: Incucyte cell viability with HEK293T; conditions: human, 10 µM, compound concentration 10 uM
[2] = test system: Fibroblast; experiment: Incucyte cell viability with human fibroblast; conditions: 10 µM, compound concentration 10 uM
[3] = test system: U2OS; experiment: Incucyte cell viability with U2OS; conditions: human, 10 µM, compound concentration 10 uM
[4] = 0 h, replicate number 1, timepoint 0 hours
[5] = 12 h, replicate number 1, timepoint 12 hours
[6] = 18 h, replicate number 1, timepoint 18 hours
[7] = 24 h, replicate number 1, timepoint 24 hours
[8] = 12 h, replicate number 2, timepoint 12 hours
[9] = 18 h, replicate number 2, timepoint 18 hours
[10] = 24 h, replicate number 2, timepoint 24 hours
[11] = 0 h, replicate number 2, timepoint 0 hours
[12] = 6 h, replicate number 1, timepoint 6 hours
[13] = 6 h, replicate number 2, timepoint 6 hours
Note: unitless GR value; below 1 slowed growth and below 0 cell loss.

Compound | Growth Rate [1, 4] | Growth Rate [1, 5] | Growth Rate [1, 6] | Growth Rate [1, 7] | Growth Rate [2, 5] | Growth Rate [2, 6] | Growth Rate [2, 7] | Growth Rate [3, 11] | Growth Rate [3, 12] | Growth Rate [3, 5] | Growth Rate [3, 8] | Growth Rate [3, 6] | Growth Rate [3, 9] | Growth Rate [3, 7] | Growth Rate [3, 10] | Growth Rate [1, 12] | Growth Rate [1, 8] | Growth Rate [1, 9] | Growth Rate [1, 10] | Growth Rate [2, 4] | further results
CN(C)C(=O)Cn1cc(-c2ccc(-c3cncc4ccccc34)cc2)cn1 | 0.84 | 0.97 | 0.9 | 0.9 | 0.27 | 0.21 | 0.05 | 0.27 | 0.31 | 0.43 | 0.74 | 0.59 | 0.76 | 0.7 | 0.86 | – | – | – | – | – | Growth Rate [2, 8]: 1; Growth Rate [2, 9]: 0.82; Growth Rate [2, 10]: 0.61; Growth Rate [3, 4]: -0.34; Growth Rate [3, 13]: 0.79
CCCCCCCCCCCCC/C=C/[C@@H](O)[C@@H](N)COP(=O)([O-])OCC[N+](C)(C)C [SPHINGOSYLPHOSPHORYLCHLOLINE] | – | 0.28 | 0.46 | 0.43 | -0.22 | -0.17 | 0.17 | – | 0.97 | – | 0.91 | – | 0.8 | 0.9 | 0.88 | -0.01 | -0.08 | 0.29 | 0.54 | – | Growth Rate [1, 13]: -0.35; Growth Rate [2, 12]: -0.36; Growth Rate [2, 13]: -0.69; Growth Rate [2, 8]: -0.25; Growth Rate [2, 9]: 0.1; Growth Rate [2, 10]: 0.07
CC1=C(C)C(=O)C(C(C)(C)CC(=O)N(CCCCSC[C@H]2O[C@@H](n3cnc4c(N)ncnc43)[C@@H]3OC(C)(C)O[C@@H]32)Cc2cccc(-c3ccc(Cl)cc3)c2)=C(C)C1=O | 0.72 | 0.85 | – | 0.96 | – | – | – | – | – | 0.3 | 0.93 | 0.49 | 0.87 | 0.63 | 0.92 | – | 0.97 | 0.94 | – | 0.04 | Growth Rate [1, 11]: 0.07; Growth Rate [2, 11]: 0.08; Growth Rate [3, 4]: -0.32
COC(=O)Nc1nc2ccc(C(=O)c3cccs3)cc2[nH]1 [NOCODAZOLE] | – | -0.24 | -0.22 | -0.22 | -0.6 | -0.54 | -0.33 | – | 0.3 | 0.1 | -0.16 | 0.03 | -0.36 | -0.06 | -0.35 | -0.46 | -0.32 | -0.34 | -0.26 | – | Growth Rate [1, 13]: -0.49; Growth Rate [2, 12]: -0.86; Growth Rate [2, 13]: -0.39; Growth Rate [2, 8]: -0.2; Growth Rate [2, 9]: -0.04; Growth Rate [2, 10]: 0.08; Growth Rate [3, 13]: 0.24
S=C(NCCCc1c[nH]cn1)NCCCN(Cc1ccc(Cl)c(Cl)c1)c1ccc(Br)cn1 | – | 0.08 | 0.15 | 0.15 | 0.17 | -0.18 | -0.16 | -1 | – | – | 0.84 | 0.88 | 0.68 | 0.83 | 0.67 | 0.16 | – | 0.19 | 0.2 | 0.28 | Growth Rate [1, 13]: -0.21; Growth Rate [2, 11]: 0.91; Growth Rate [2, 12]: -0.23; Growth Rate [2, 13]: 0.5; Growth Rate [2, 8]: 0.18; Growth Rate [2, 9]: 0.55; Growth Rate [2, 10]: 0.74
O=C1Nc2ccc(I)cc2/C1=C/c1cc(Br)c(O)c(Br)c1 | -0.08 | – | 0.97 | 0.91 | – | – | – | -0.15 | – | 0.89 | – | – | – | – | – | – | – | – | – | -0.2 | Growth Rate [1, 11]: 0.11; Growth Rate [2, 11]: 0.15
O=C(Nc1cc(-c2ccccc2)nn1-c1ccccc1F)c1ccc([N+](=O)[O-])cc1 | 0.97 | – | – | – | 0.25 | 0.09 | -0.11 | – | – | – | 0.84 | – | 0.9 | – | 0.95 | – | – | – | – | – | Growth Rate [1, 11]: 0.17; Growth Rate [2, 12]: -0.14; Growth Rate [2, 13]: 0.55; Growth Rate [2, 9]: 0.95; Growth Rate [3, 13]: 0.54
Cc1nccc(COC(=O)N2C[C@@H]3[C@@H](CNC(=O)c4ccc5[nH]nnc5c4)[C@@H]3C2)n1 [BI 3017] | 0.67 | – | – | – | 0.1 | 0.53 | 0.68 | 0.45 | 0.79 | 0.75 | 0.9 | 0.68 | 0.98 | 0.71 | – | – | 0.9 | – | – | 0.35 | Growth Rate [1, 11]: 0.34; Growth Rate [2, 11]: 0.77; Growth Rate [2, 12]: 0.04; Growth Rate [3, 4]: 0.07
OCCCNc1cc(-c2ccnc(Nc3cccc(Cl)c3)n2)ccn1 | – | -0.52 | -0.38 | -0.29 | -0.15 | -0.2 | -0.02 | -0.28 | 0.44 | 0.44 | 0.56 | 0.26 | 0.36 | 0.23 | 0.24 | -0.65 | -0.62 | -0.46 | -0.38 | -0.42 | Growth Rate [1, 13]: -0.7; Growth Rate [2, 11]: -0.55; Growth Rate [2, 12]: -0.19; Growth Rate [2, 13]: 0.11; Growth Rate [2, 8]: -0.06; Growth Rate [2, 9]: -0.09; Growth Rate [2, 10]: -0.06; Growth Rate [3, 4]: -0.27
C[C@@H](c1ccc(F)cc1)n1nnc2cnc3ccc(-c4ccc5ocnc5c4)cc3c21 | – | -0.11 | 0.09 | 0.23 | – | – | – | 0.33 | – | – | 0.94 | 0.75 | 0.83 | 0.51 | 0.82 | -0.12 | -0.14 | 0.07 | 0.21 | 0.92 | Growth Rate [1, 13]: -0.31; Growth Rate [3, 4]: -0.51
CCCCCCCC/C=C\CCCCCCCC(N)=O [OLEAMIDE] | 0.61 | 0.8 | 0.89 | 0.96 | – | – | – | 0.51 | 0.78 | 0.75 | 0.79 | 0.76 | 0.89 | 0.98 | – | 0.79 | 0.99 | 0.94 | 1 | 0.63 | Growth Rate [1, 11]: 0.35; Growth Rate [2, 11]: 0.02; Growth Rate [2, 13]: 0.82; Growth Rate [3, 4]: 0.24; Growth Rate [3, 13]: 1
Cl.Cl.OCCOCCN1CCN(C(c2ccccc2)c2ccc(Cl)cc2)CC1 (configuration not stated) [HYDROXYZINE HYDROCHLORIDE] | – | 0.52 | 0.19 | 0.04 | 0.82 | 0.88 | 0.77 | -1 | 0.46 | – | – | – | – | – | – | 0.77 | 0.45 | 0.39 | 0.32 | – | Growth Rate [1, 13]: 0.15; Growth Rate [2, 11]: 0.31; Growth Rate [2, 12]: 0.49
CC(C)Oc1ccc(F)c(-c2cnc(N)c(C(=O)Nc3cnccc3N3CCC[C@@H](C(=O)O)C3)n2)c1 | 0.29 | 0.11 | 0.21 | 0.25 | – | – | – | -1 | – | – | – | – | 0.84 | – | 0.73 | 0.66 | 0.14 | 0.13 | 0.33 | -0.81 | Growth Rate [1, 11]: 0.07; Growth Rate [1, 13]: 0.25; Growth Rate [2, 11]: 0.06
COc1ccc(-n2c(C)c([N+](=O)[O-])c3ccc(O)cc32)cc1 | 0.39 | – | – | – | – | – | – | -1 | -0.36 | 0.46 | 0.73 | 0.7 | 0.71 | 0.63 | 0.67 | – | – | – | – | – | Growth Rate [2, 13]: 0.98; Growth Rate [2, 9]: 0.87; Growth Rate [2, 10]: 0.5; Growth Rate [3, 13]: 0.75
